# Reference: US20240277658A1, “NLRP3 ACTIVATORS FOR USE IN THE TREATMENT OF INFECTIOUS DISEASES OR CANCER BY ACTIVATING NLRP3 INFLAMMASOME” (ALBERT-LUDWIGS-UNIVERSITÄT FREIBURG, priority 2020, published 2024)
# Several values for one entry are separate records, joined by “and”; a condition that tells them apart may be missing. Identical values can stand only once. Like-named read-outs stand apart in the source and are kept apart here.
# Tests used:
# NLRP3 inflammasome = target: T1, NLRP3 inflammasome (Mus musculus, UniProt Q8R4B8); assay: IL-1β release from LPS-primed BMDCs (ELISA) as readout of NLRP3 inflammasome activation; format: cell-based
# T1 construct: endogenous in cells; host or cells: primary mouse bone marrow-derived dendritic cells (BMDCs), LPS-primed
# How it was run: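 NLRP3 inflammasome activation was read out as IL-1β released into the supernatant, measured by ELISA. Murine BMDCs were primed with LPS (50 ng ml^−1, 3 hours), then incubated with compounds for 3 hours, with each condition run in three technical replicates. Nigericin at 5 μM acted as the positive control activator, and IL-1β release was also expressed as a percentage of that control.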
# BMDCs = assay: LDH release (lytic cell death, pyroptosis) from LPS-primed BMDCs; format: cell-based, mouse; details: for Average (% positive control): LDH release; for cytotoxicity at 50 µM / cytotoxicity at 18.75 µM / cytotoxicity at 37.5 µM / cytotoxicity at 75 µM / cytotoxicity at 25 µM / cytotoxicity at 100 µM: Mus musculus, BMDC
# How it was run: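 Mouse BMDCs (7-9 days differentiated, GM-CSF) primed with 50 ng ml^−1 E. coli K12 LPS for 3 hours, then exposed 3 hours to compounds (50 μM unless indicated) or activators (nigericin 5 μM; R837, CL097 100 μM). Lytic death measured as LDH release by colorimetric assay, triplicate wells.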
# [1] = IL-1β release, compound 50 μM, positive control nigericin 5 μM
# [2] = compound 50 μM, LPS-primed BMDCs
# [3] = single replicates, compound 50 μM, LPS-primed BMDCs
# [4] = compound 50 μM, positive control nigericin 5 μM
# [5] = compound 50 μM, LPS-primed BMDCs, read-out: Average LDH release (% of max.)
# [6] = single replicates, compound 50 μM, LPS-primed BMDCs, read-out: LDH release (% of max.)
# [7] = 25 μM, individual replicate values, EN11 series table
# [8] = 50 μM, individual replicate values, EN11 series table
# [9] = 100 μM, individual replicate values
# [10] = IL-1β, 25 μM, positive control EN22 25 μM
# [11] = IL-1β, 50 μM, positive control EN22 25 μM
# [12] = IL-1β, 100 μM, positive control EN22 25 μM
# [13] = 25 μM, positive control EN22 25 μM
# [14] = 50 μM, positive control EN22 25 μM
# [15] = 100 μM, positive control EN22 25 μM
# [16] = 25 μM, EN11 series table, read-out: Average LDH release (% of max.)
# [17] = 50 μM, EN11 series table, read-out: Average LDH release (% of max.)
# [18] = 100 μM, individual replicate values, read-out: LDH release (% of max.)
# [19] = 100 μM, read-out: Average LDH release (% of max.)
# T1 sequence (Q8R4B8 whole entry): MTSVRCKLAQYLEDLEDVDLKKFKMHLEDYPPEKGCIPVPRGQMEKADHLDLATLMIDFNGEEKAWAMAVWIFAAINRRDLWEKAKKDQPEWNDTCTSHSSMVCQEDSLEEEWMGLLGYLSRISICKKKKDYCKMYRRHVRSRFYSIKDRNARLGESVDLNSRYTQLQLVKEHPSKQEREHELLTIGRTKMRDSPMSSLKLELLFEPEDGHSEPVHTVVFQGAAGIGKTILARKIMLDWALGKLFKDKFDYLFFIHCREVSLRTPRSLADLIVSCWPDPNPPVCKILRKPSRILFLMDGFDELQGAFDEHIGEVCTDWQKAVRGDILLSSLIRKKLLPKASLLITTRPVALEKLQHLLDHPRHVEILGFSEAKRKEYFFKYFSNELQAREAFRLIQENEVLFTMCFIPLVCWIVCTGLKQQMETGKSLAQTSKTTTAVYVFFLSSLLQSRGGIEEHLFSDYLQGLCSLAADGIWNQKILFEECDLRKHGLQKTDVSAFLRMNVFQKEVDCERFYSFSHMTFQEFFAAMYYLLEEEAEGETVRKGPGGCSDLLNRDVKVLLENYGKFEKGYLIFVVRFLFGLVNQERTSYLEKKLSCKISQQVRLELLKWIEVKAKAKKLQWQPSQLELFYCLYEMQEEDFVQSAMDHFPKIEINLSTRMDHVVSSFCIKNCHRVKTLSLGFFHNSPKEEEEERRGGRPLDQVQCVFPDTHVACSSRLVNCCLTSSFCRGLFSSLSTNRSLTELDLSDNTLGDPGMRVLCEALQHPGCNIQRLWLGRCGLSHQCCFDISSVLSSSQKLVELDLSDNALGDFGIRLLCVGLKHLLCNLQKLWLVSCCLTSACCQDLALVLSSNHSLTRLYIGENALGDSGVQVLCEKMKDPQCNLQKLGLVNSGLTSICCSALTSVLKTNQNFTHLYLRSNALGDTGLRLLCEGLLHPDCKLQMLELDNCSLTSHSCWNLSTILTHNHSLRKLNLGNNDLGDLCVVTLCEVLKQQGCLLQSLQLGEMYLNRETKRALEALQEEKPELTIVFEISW
Structure (SMILES),Average (% positive control) (NLRP3 inflammasome; [1]),Average IL-1β (NLRP3 inflammasome; [2]) [ng/mL],IL-1β (NLRP3 inflammasome; [3]),Average (% positive control) (BMDCs; [4]),cytotoxicity at 50 µM (BMDCs; [5]) [%],cytotoxicity at 50 µM (BMDCs; [6]) [%],further results
"O=C(NCc1nc(-c2ccsc2)no1)Nc1cc(Cl)cc(Cl)c1 [L01.115, 1-(3,5-dichlorophenyl)-3-{[3-(thiophen-3-yl)-1,2,4-oxadiazol-5-yl]-methyl}urea]",1.584,0.114,0.122 ng/mL and 0.108 ng/mL and 0.111 ng/mL,30.346,22.2,23.6,–
"Cc1c(F)cccc1CN1CCCC(Cc2nc(-c3ccc(NC(=O)Nc4ccccc4)cc3)no2)C1 (stereo not shown) [PM16, 1-(4-(5-((1-(3-fluoro-2-methylbenzyl)piperidin-3-yl)methyl)-1,2,4-oxadiazol-3-yl)phenyl)-3-phenylurea]",–,–,–,–,–,–,"Average IL-1β (NLRP3 inflammasome; 18.75 μM): 0.777 ng/mL; IL-1β (NLRP3 inflammasome; 18.75 μM, individual replicate values): 0.764 ng/mL and 0.830 ng/mL and 0.736 ng/mL; Average IL-1β (NLRP3 inflammasome; 37.5 μM): 0.846 ng/mL; IL-1β (NLRP3 inflammasome; 37.5 μM, individual replicate values): 0.895 ng/mL and 0.795 ng/mL and 0.848 ng/mL; Average IL-1β (NLRP3 inflammasome; 75 μM): 0.890 ng/mL; IL-1β (NLRP3 inflammasome; 75 μM, individual replicate values): 0.876 ng/mL and 0.848 ng/mL and 0.948 ng/mL; Average (% positive control) (NLRP3 inflammasome; IL-1β, 18.75 μM, positive control EN22 18.75 μM): 12.288 % positive control; Average (% positive control) (NLRP3 inflammasome; IL-1β, 37.5 μM, positive control EN22 18.75 μM): 13.380 % positive control; Average (% positive control) (NLRP3 inflammasome; IL-1β, 75 μM, positive control EN22 18.75 μM): 14.083 % positive control; cytotoxicity at 18.75 µM (BMDCs; section 1.4, 18.75 μM, read-out: Average LDH release (% of max.)): 72.8%; cytotoxicity at 37.5 µM (BMDCs; section 1.4, 37.5 μM, read-out: Average LDH release (% of max.)): 90%; cytotoxicity at 75 µM (BMDCs; section 1.4, 75 μM, read-out: Average LDH release (% of max.)): 97.5%; cytotoxicity at 18.75 µM (BMDCs; section 1.4, single replicates, 18.75 μM, read-out: LDH release (% of max.)): 72%; cytotoxicity at 37.5 µM (BMDCs; section 1.4, single replicates, 37.5 μM, read-out: LDH release (% of max.)): 89%; cytotoxicity at 75 µM (BMDCs; section 1.4, single replicates, 75 μM, read-out: LDH release (% of max.)): 100%; Average (% positive control) (BMDCs; section 1.4, 18.75 μM, positive control EN22 18.75 μM): 102.052 % positive control; Average (% positive control) (BMDCs; section 1.4, 37.5 μM, positive control EN22 18.75 μM): 126.179 % positive control; Average (% positive control) (BMDCs; section 1.4, 75 μM, positive control EN22 18.75 μM): 136.598 % positive control"
"O=C(NCc1ccccc1)NCc1ccc2ncccc2c1 [EN11-11, 3-benzyl-1-[(quinolin-6-yl)methyl]urea]",–,–,–,–,–,–,"Average IL-1β (NLRP3 inflammasome; 25 μM, EN11 series table): 0.000 ng/mL; IL-1β (NLRP3 inflammasome; [7]): 0.000 ng/mL; Average IL-1β (NLRP3 inflammasome; 50 μM, EN11 series table): 0.014 ng/mL; IL-1β (NLRP3 inflammasome; [8]): 0.021 ng/mL and 0.022 ng/mL and 0.000 ng/mL; Average IL-1β (NLRP3 inflammasome; 100 μM): 0.011 ng/mL; IL-1β (NLRP3 inflammasome; [9]): 0.012 ng/mL and 0.021 ng/mL and 0.000 ng/mL; Average (% positive control) (NLRP3 inflammasome; [10]): 0.000 % positive control; Average (% positive control) (NLRP3 inflammasome; [11]): 0.975 % positive control; Average (% positive control) (NLRP3 inflammasome; [12]): 0.761 % positive control; Average (% positive control) (BMDCs; [13]): 8.741 % positive control; Average (% positive control) (BMDCs; [14]): 8.257 % positive control; Average (% positive control) (BMDCs; [15]): 10.723 % positive control; cytotoxicity at 25 µM (BMDCs; [16]): 4.45%; cytotoxicity at 50 µM (BMDCs; [17]): 4.2%; cytotoxicity at 100 µM (BMDCs; [18]): 5.91%; cytotoxicity at 100 µM (BMDCs; [19]): 5.45%"
"CC(C)CC(NC(=O)Nc1cccc(N2CCNC2=O)c1)c1nc(-c2nnc[nH]2)no1 (stereo not shown) [L01.010, 3-{3-methyl-1-[3-(4H-1,2,4-triazol-3-yl)-1,2,4-oxadiazol-5-yl]butyl}-1-[3-(2-oxoimidazolidin-1-yl)phenyl]urea]",0.822,0.059,0.065 ng/mL and 0.059 ng/mL and 0.053 ng/mL,7.822,5.72,5.64,–
"COc1cccc(NC(=O)N(C)Cc2nc(-c3cccnc3)no2)c1 [L01.136, 1-(3-methoxyphenyl)-3-methyl-3-{[3-(pyridin-3-yl)-1,2,4-oxadiazol-5-yl]methyl}urea]",1.025,0.073,0.064 ng/mL and 0.073 ng/mL and 0.083 ng/mL,9.465,6.92,6.95,–
"N#Cc1ccc(NC(=O)NC(CO)c2nc(-c3ccccc3)no2)cc1 (stereo not shown) [L01.112, 1-(4-cyanophenyl)-3-[2-hydroxy-1-(3-phenyl-1,2,4-oxadiazol-5-yl)-ethyl]urea]",0.955,0.068,0.075 ng/mL and 0.069 ng/mL and 0.061 ng/mL,10.010,7.32,7.96,–
"O=C(NCc1ccccc1)Nc1ccc2ncccc2c1 [EN11-16, 1-benzyl-3-(quinolin-6-yl)urea]",–,–,–,–,–,–,"Average IL-1β (NLRP3 inflammasome; 25 μM, EN11 series table): 0.008 ng/mL; IL-1β (NLRP3 inflammasome; [7]): 0.010 ng/mL and 0.014 ng/mL and 0.000 ng/mL; Average IL-1β (NLRP3 inflammasome; 50 μM, EN11 series table): 0.060 ng/mL; IL-1β (NLRP3 inflammasome; [8]): 0.068 ng/mL and 0.054 ng/mL and 0.058 ng/mL; Average IL-1β (NLRP3 inflammasome; 100 μM): 0.325 ng/mL; IL-1β (NLRP3 inflammasome; [9]): 0.334 ng/mL and 0.324 ng/mL and 0.315 ng/mL; Average (% positive control) (NLRP3 inflammasome; [10]): 0.555 % positive control; Average (% positive control) (NLRP3 inflammasome; [11]): 4.074 % positive control; Average (% positive control) (NLRP3 inflammasome; [12]): 22.016 % positive control; Average (% positive control) (BMDCs; [13]): 15.222 % positive control; Average (% positive control) (BMDCs; [14]): 16.245 % positive control; Average (% positive control) (BMDCs; [15]): 24.607 % positive control; cytotoxicity at 25 µM (BMDCs; [16]): 7.74%; cytotoxicity at 25 µM (BMDCs; 25 μM, individual replicate values, EN11 series table, read-out: LDH release (% of max.)): 7.87%; cytotoxicity at 50 µM (BMDCs; [17]): 8.26%; cytotoxicity at 50 µM (BMDCs; 50 μM, individual replicate values, EN11 series table, read-out: LDH release (% of max.)): 8.33%; cytotoxicity at 100 µM (BMDCs; [18]): 14.2%; cytotoxicity at 100 µM (BMDCs; [19]): 12.5%"

# The next lines start with results.
Average (% positive control) (NLRP3 inflammasome; [1]),Average IL-1β (NLRP3 inflammasome; [2]) [ng/mL],Structure (SMILES),IL-1β (NLRP3 inflammasome; [3]),Average (% positive control) (BMDCs; [4]),cytotoxicity at 50 µM (BMDCs; [5]) [%],cytotoxicity at 50 µM (BMDCs; [6]) [%],further results
2.800,0.201,"O=C(Nc1ccccc1)Nc1cccc(OC(F)F)c1 [L01.120, 3-[3-(difluoromethoxy)-phenyl]-1-phenylurea]",0.207 ng/mL and 0.200 ng/mL and 0.196 ng/mL,33.449,24.5,25,–
2.590,0.186,"N#CCOc1ccc(NC(=O)Nc2ccccc2)cc1 [L01.002, 1-[4-(cyanomethoxy)-phenyl]-3-phenylurea]",0.144 ng/mL and 0.249 ng/mL and 0.164 ng/mL,13.662,9.99,8.07,–
0.928,0.067,"O=C(Nc1ccccc1)Nc1ccc(NC2CCOCC2)cc1 [L01.065, 1-{4-[(oxan-4-l)amino]-phenyl}-3-phenylurea]",0.052 ng/mL and 0.070 ng/mL and 0.077 ng/mL,12.397,9.07,8.41,–
15.216,1.091,"O=C(Nc1ccccc1)Nc1ccc(NC(=O)C2CCOC2)cc1 (stereo not shown) [L01.101, N-{4-[(phenylcarbamo-yl)amino]phenyl}oxo-lane-3-carboxamide]",1.160 ng/mL and 1.071 ng/mL and 1.041 ng/mL,27.161,19.9,19.4,–
1.269,0.091,"CC(=O)Nc1ccc(NC(=O)Nc2ccccc2)cc1 [L01.109, N-{4-[(phenylcarbamo-yl)amino]phenyl}acet-amide]",0.120 ng/mL and 0.083 ng/mL and 0.070 ng/mL,10.912,7.98,8.46,–
1.703,0.122,"CC(=NO)c1ccc(NC(=O)Nc2ccccc2)cc1 [L01.095, 3-{4-[1-(hydroxyimino)-ethyl]phenyl}-1-phenyl-urea]",0.137 ng/mL and 0.128 ng/mL and 0.102 ng/mL,7.959,5.82,5.21,–
